Like-named read-outs stand apart in the source and are kept apart here.
Assays:
[1] = cited from earlier work; for Formation of metabolites in the body: in vivo
bacteria cells = assay: Dark toxicity towards bacteria cells; assay type: cell-based; details: 10 μM, no light

Row | SMILES | Formation of metabolites in the body [1] | Formation of metabolites in the body ([1]; listed as Temoporfin) | Effect of lipoprotein levels and cholesterol metabolism on pharmacokinetics in plasma ([1]; plasma) | Dark toxicity towards bacteria cells (bacteria cells)
1 | Oc1cccc(-c2c3nc(c(-c4cccc(O)c4)c4ccc([nH]4)c(-c4cccc(O)c4)c4nc(c(-c5cccc(O)c5)c5ccc2[nH]5)CC4)C=C3)c1 [mTHPC, m-tetrahydroxyphenylchlorin] | does not form metabolites | no known enzyme system in the mammalian body which can metabolize Temoporfin | neither lipoprotein levels nor cholesterol metabolism affects the pharmacokinetics | 
2 | CCCCCCc1c2nc(c(-c3ccc(C(=O)O)cc3)c3ccc([nH]3)c(-c3ccc(C(=O)O)cc3)c3nc(c(CCCCCC)c4ccc1[nH]4)C(O)C3O)C=C2 (stereo not shown) [BLC 6066, 2,3-Dihydro-2,3-dihydroxy-15,20-dihexyl-5,10-bis(4-carboxy-phenyl)porphyrin] |  |  |  | strong dark toxicity
